In brackets after ≈: the same amount, converted by molar mass.
Key:
rhinovirus = assay: Inhibition of rhinovirus cytopathic effect in Vero cells; assay type: cell-based; settings: 1-100 μg, 24 h
Method: (§1) The ability of KY compounds to inhibit cell infection by a rhinovirus and adenoviruses 5 and 7 which are non-enveloped viruses, was similarly studied. Vero cells (10^5) were infected with a rhinovirus in the presence of KY-1, at concentrations ranging between 1-100 μg. Twenty-four hours after virus infection, the cells were examined for cytopathic effect, evidencing viral infection.

HSV-2 [1] = assay: Plaque reduction assay, HSV-2, Vero cells; assay type: cell-based, HSV-2 (333); settings: Human alphaherpesvirus 2, Vero
HSV-2 [2] = assay: Topical treatment of genital HSV-2 infection, guinea pigs, second study; settings: for % Animals with Lesions / Lesion Score (AUC) / Mean Peak lesion score: 24 h
Method: In another study using the guinea pig genital model described above, animals were infected with HSV-2, then treated with KY-1 or Y-1 topically at concentrations of 2% or 5% drug. […] Animals were treated and scored daily for severity of infection for 19 days.
(§2) The MS strain of HSV-2 was utilized for the experimental animal infection. Female Hartley strain guinea pigs (Charles River Breeding Laboratories, Kingston, NY) weighing 250-300 g were inoculated intravaginally with 2.0×10^5 plaque-forming units of HSV-2 one hour after being swabbed for removal of vaginal secretions.
Formulations of KY-1 or Y-1 were prepared by dissolving the compound in a 1.5% methyl cellulose solution such that final concentration of compound was 2% or 5% (wt/wt). Control animals were given either no treatment (N=10 animals) or treatment with placebo (1.5% methylcellulose solution).
(§3) To determine the effect of therapy on the development and spread of external genital lesions, lesion severity was scored on a 0-5+ scale through the primary infection period (19-21 days). Lesion score-day areas and virus titer-day areas under the curve, and peak lesion scores and peak virus titers between untreated and placebo-treated or placebo-treated and drug-treated animals were compared using the Mann-Whitney U range sum test. A p-value of 0.05 or less was considered significant.
Animals were scored daily for 19 days following inoculation for presence of lesions and severity of lesions (on a 0-5+ point scale). Lesion scores were tabulated as area under the curve of daily lesion score vs. time (days) and peak lesion score observed. A known antiviral agent, acyclovir (ACV) was administered in a 5% formulation to 8 animals as a positive control in the study.

adenovirus = assay: Inhibition of adenovirus cytopathic effect in Vero cells; assay type: cell-based, adenoviruses 5 and 7; settings: 1-100 μg, 24 h
Method: as §1
Vero cells were infected with adenovirus in the presence of KY-1, also at concentrations ranging between 1-100 μg, and twenty-four hours after virus infection, the cells were examined for cytopathic effect.

Influenza A (Taiwan) = assay: Inhibition of influenza A cytopathic effect (clumping) in MDCK cells; assay type: cell-based, Influenza A virus (A/Taiwan strain); settings: Influenza A virus, 24 h, 50% reduction in percent clumped cells, read-out: ED50 Influenza A (Taiwan)
Method: With virus infection, a cytopathic effect characterized by cell clumping is observed. For each compound tested, drug concentrations of 0.1, 1, 10, 25, and 100 μg/ml were added to cultured cells at the time of virus infection, as detailed in Examples 9 and 11. […] The inhibition of clumping was plotted as a function of drug concentration, to determine the dose effective to produce a 50% reduction in the percent clumped cells, measured with respect to control (no drug treatment).
Assays to assess the antiviral activity of KY- and Y-compounds in tissue culture were performed in 96-well flat-bottom tissue culture plates (Falcon 307), using conditions similar to those used in the cytotoxicity assays described above. In these assays, compound was tested in quadruplicate by serially diluting the compound in 2% FCS-MEM using serial two-fold dilutions (0.05 ml/well). A 0.05 ml volume of the appropriate virus containing approximately 100 median tissue culture infectious doses (TCID50) was then added to all wells except those set aside as antiviral and tissue control wells. Next, approximately 3×10^3 HEp2 cells (0.1 ml) were added to each well. Control wells containing antiviral and no virus (antiviral control), containing virus but no antiviral (virus control), or containing medium without virus or antiviral (tissue control), were included in each test. The challenge virus was then back titrated. All assay plates were incubated at 35° C. for 5 to 7 days in a 5% CO2 incubator.
The anti-influenza A activity of KY compounds was evaluated as described in Example 9, except that MDCK cells (kidney cell line) was used for infection in vitro by influenza virus (strain A/Taiwan).

HSV-1 KOS = assay: Inhibition of viral yield, wild type HSV-1 KOS; settings: Human alphaherpesvirus 1, HeLa, read-out: ID90
Method: (§4) These compounds tested were the nucleoside analogs acyclovir (ACV), ganciclovir (DHPG), phosphonoformate (PFA), and phosphomethoxyethyladenine (PMEA). Inhibition of viral yield was determined, as above, by infecting Hela cells in the presence of wild type or drug-resistant strains of HSV-1 or HSV-2, and serial dilutions of a selected anti-viral compound, and infecting Vero cells with serial dilutions of the Hela cell lysate, as above.
(§5) The KOS (HSV-1) and 333 (HSV-2) are wild type viruses; the KOS(PMEA)' and KOS(PFA)' are drug-resistant HSV-1 strains having a DNA polymerase mutation. The 333(DHPG) strain is a drug-resistantHSV-2 strain having a thymidine kinase mutation.
(§6) The following strains of HSV-1 and HSV-2 virus were used: KOS, a wild type HSV-1 virus; KOS (PMEA) and KOS (PFA), both drug-resistant HSV-1 viruses having a DNA polymerase mutation; 333, a wild type HSV-2 HSV-2 virus, and 333 (DHPG), a drug-resistant HSV-2 virus having a thymidine kinase mutation.
(§7) After growth at 37° C. for 24 hours in 2 ml of RPMI-1640 containing 2% FCS and penicillin and streptomycin (P/S), the cells were frozen at -70° C. until the time for titration. The cells were freeze/thawed 3 times to release virus from the cells, serially diluted 10 fold, and the serial dilutions were added to Vero cells in culture. After 2 hours incubation at 37° C. the virus was removed and 0.5 ml methycellulose (4K cps) in RPMI-1640 and 2% FCS+P/S was added. Two days later, the medium was removed. The cells were stained in 0.8% crystal violet in 50% ethanol. The plaques formed were counted and the titer was calculated from the fold of dilutions. From the drug dose response, the concentration of each drug required to effect a 90% inhibition of virus yield, the IC90 concentration was determined.

HSV-1 KOS(PMEA)' = assay: Inhibition of viral yield, drug-resistant HSV-1 KOS(PMEA)'; settings: Human alphaherpesvirus 1, HeLa, read-out: ID90
HSV-1 KOS (PFA)' = assay: Inhibition of viral yield, drug-resistant HSV-1 KOS(PFA)'; settings: Human alphaherpesvirus 1, HeLa, read-out: ID90
Method: as §4, §5, §6, §7

HIV-HXB = assay: Inhibition of syncytia formation, HIV-HXB (HTLV-IIIB); settings: Human immunodeficiency virus 1, 18 h, read-out: HIV-HXB ED100, complete inhibition of syncytia formation
HSV-2 333 (DHPG)' = assay: Inhibition of viral yield, drug-resistant HSV-2 333(DHPG)'; settings: Human alphaherpesvirus 2, HeLa, read-out: ID90
Method: as §4, §5, §6, §7

RSV = assay: Inhibition of RSV cytopathic effect in HEp2 cells; assay type: cell-based; settings: human respiratory syncytial virus, HEp-2, read-out: ED50 RSV
HSV-2 [3] = assay: Topical treatment of genital HSV-2 infection, guinea pigs, first study
Method: Briefly, female guinea pigs were infected intravaginally with HSV-2, then treated topically three times daily beginning 6 hours or 48 hours after inoculation with HSV-2, as described in Example 13. […] Swabs of vaginal secretion were obtained and assayed for viral activity by a standard CPE assay. The severity of genital lesions was scored on a 0-5+ scale through the period of primary infection (21 days).
as §2
In the first study, groups of 10 guinea pigs were treated topically (0.1 ml intravaginally +0.1 ml on external genital skin) three times daily (approximately every eight hours) for seven days beginning 6 h or 48 h after inoculation with HSV-2.
To determine the effect of treatment on vaginal viral replication, swabs of vaginal secretions were obtained on days 1, 3, 5, 7 and 10 after HSV inoculation, placed in a tube containing 2.0 ml of media, vortexed and frozen at -70° C. until titrated for HSV-2. When all samples were collected, they were thawed, diluted serially and HSV-2 titers determined using rabbit kidney cells in a microtiter CPE assay.
as §3

HSV-1 [4] = assay: Inactivation of purified HSV-1 by compound, plaque number after serial dilution; settings: for Plaque number, dilution 10^2 / Plaque number, dilution 10^3 / Plaque number, dilution 10^4 / Plaque number, dilution 10^5 / Plaque number, dilution 1 / Plaque number, dilution 10^1: 10 μg/ml, duplicate
Method: In a third study, purified HSV-1 virus suspensions were incubated with KY-1 or the sodium salt thereof, or a control solution for 1 hour, then serially diluted to drug concentrations between 10^1 to 10^-4 μg/ml as described in Example 16. The "X" symbol in the table indicates plaques too numerous to count.
Purified HSV-1 was suspended in RPMI-1640 medium (Gibco Laboratories) containing 2% FCS, penicillin and streptomycin. […] The suspensions were incubated for 1 hour at 37° C., then diluted serially at 10 fold dilutions to final drug concentrations of 10, 10^0, 10^-1, 10^-2, 10^-3 and 10^-4 μg/ml drug concentrations The serially diluted particles were then added to Vero cells for two hours, as in Example 6, and the cells examined for plaques 48 hours later.

HSV-2 333 = assay: Inhibition of viral yield, wild type HSV-2 333; settings: Human alphaherpesvirus 2, HeLa, read-out: ID90
Method: as §4, §5, §6, §7

HSV-1 [5] = assay: Plaque reduction assay, HSV-1, Vero cells; assay type: cell-based, HSV-1 (Kos-1); settings: Human alphaherpesvirus 1, Vero, plaque reduction, Vero cells

O=S(=O)(O)c1cc2cc(S(=O)(=O)O)c3c(O)c2c(O)c1Cc1c(S(=O)(=O)O)cc2cc(S(=O)(=O)O)c(c(O)c2c1O)Cc1c(S(=O)(=O)O)cc2cc(S(=O)(=O)O)c(c(O)c2c1O)Cc1c(S(=O)(=O)O)cc2cc(S(=O)(=O)O)c(c(O)c2c1O)C3 [KY-1]
reduction in cell clumping, rhinovirus (rhinovirus): No reduction in cell clumping
IC50 (HSV-2 [1]): 1.7 µg/mL (≈ 1.28 µM)
% Animals with Lesions (HSV-2 [2]; 2%): 70%
Lesion Score (AUC) (HSV-2 [2]; 2%): 16.2
Mean Peak lesion score (HSV-2 [2]; 2%): 2.2
% Animals with Lesions (HSV-2 [2]; 6%): 50%
Lesion Score (AUC) (HSV-2 [2]; 6%): 17.5
Mean Peak lesion score (HSV-2 [2]; 6%): 1.7
lesions, in words (HSV-2 [2]; 24 hours post-infection, 6% KY-1 or Y-1, 2% KY-1): reduced numbers of lesion bearing animals and reduced severity of lesions
reduction in cell clumping, adenovirus (adenovirus): No reduction in cell clumping
EC50 (Influenza A (Taiwan)): > 188 µg/mL
IC90 (HSV-1 KOS): 1.9 µg/mL (≈ 1.43 µM)
IC90 (HSV-1 KOS(PMEA)'): 2.6 µg/mL (≈ 1.96 µM)
IC90 (HSV-1 KOS (PFA)'): 4.3 µg/mL (≈ 3.23 µM)
EC100 (HIV-HXB): 8 µg/mL
IC90 (HSV-2 333 (DHPG)'): 3.7 µg/mL (≈ 2.78 µM)
EC50 (RSV): 0.19 µg/mL (≈ 0.143 µM)
Lesion score Area Under Curve (HSV-2 [3]; 1%, +6 h): 30.8
Mean Peak lesion score (HSV-2 [3]; 1%, +6 h): 2.9
AUC, in words (HSV-2 [3]; 1%, +6h, P<0.01): significantly reduced the AUC
Lesion score Area Under Curve (HSV-2 [3]; 1%, +48 h): 46.6
Mean Peak lesion score (HSV-2 [3]; 1%, +48 h): 4.3
lesion development (AUC and mean peak lesion scores) versus placebo (HSV-2 [3]; 5%, 6h after infection, P <0.001): significantly reduced
Lesion score Area Under Curve (HSV-2 [3]; 5%, +6 h): 3.8
Mean Peak lesion score (HSV-2 [3]; 5%, +6 h): 0.8
Lesion score Area Under Curve (HSV-2 [3]; 5%, +48 h): 45.7
Mean Peak lesion score (HSV-2 [3]; 5%, +48 h): 3.7
Plaque number, dilution 10^2 (HSV-1 [4]; 0.3 pfu/cell): 0,0
Plaque number, dilution 10^3 (HSV-1 [4]; 0.3 pfu/cell): 0,0
Plaque number, dilution 10^4 (HSV-1 [4]; 0.3 pfu/cell): 0,0
Plaque number, dilution 10^5 (HSV-1 [4]; 0.3 pfu/cell): 0,0
Plaque number, dilution 1 (HSV-1 [4]; 0.3 pfu/cell, listed as KY 1): 3,2
Plaque number, dilution 10^1 (HSV-1 [4]; 0.3 pfu/cell, listed as KY 1): 0,0
Plaque number, dilution 10^4 (HSV-1 [4]; 3 pfu/cell): 0,0
Plaque number, dilution 10^5 (HSV-1 [4]; 3 pfu/cell): 0,0
Plaque number, dilution 1 (HSV-1 [4]; 3 pfu/cell, listed as KY 1): 2,2
Plaque number, dilution 10^1 (HSV-1 [4]; 3 pfu/cell, listed as KY 1): 2,1
Plaque number, dilution 10^2 (HSV-1 [4]; 3 pfu/cell, listed as KY 1): 17,16
Plaque number, dilution 10^3 (HSV-1 [4]; 3 pfu/cell, listed as KY 1): 5,2
final drug concentration with complete virus inhibition (HSV-1 [4]; after dilution of treated virus): 10^-2 to 10^-4 μg/ml
IC90 (HSV-2 333): 3.2 µg/mL (≈ 2.41 µM)
IC50 (HSV-1 [5]): 2.7 µg/mL (≈ 2.03 µM)

Source: patent publication US5441983A, “Treatment of infection by enveloped virus with calix(N)arene compounds” (Genelabs Incorporated, priority 1992, dated 1995)
